# Laboratory results as given in patent publication US20230052517A1, “ELECTROCHEMICAL SENSING METHODS AND APPARATUS FOR DETERMINING DRUG UPTAKE AND RETENTION IN CELLS” (priority 2020, published 2023).
# Where two headings read alike, the source gives them in different places.
# Columns and labels:
# [1] = test system: Pseudomonas aeruginosa PAO1 (wild type strain, containing efflux pumps); assay: Tobramycin uptake by DPV of the supernatant, PAO1 strain; type: cell-based; details: for Percentage of Tobramycin in Supernatant, PAO1: 2 mM Tobramycin, 1X PBS, 0.4% glucose, 37° C., DPV on GCE at pH 3
# Procedure: (§1) (i.e. 15 minutes; 30 minutes and 60 minutes). […] Integration underneath the curves provides the charge.
# (§2) The uptake of another antibiotic, Tobramycin (2 mM) was analyzed in Pseudomonas aeruginosa using DPV. […] As summarized in TABLE 3, the concentration of the control remains stable over different times of incubation at 37° C. […] At 15 min, the hyper-susceptible PAO750 removes about 26% of Tobramycin, which is slightly more than the wild type. […] A concentration of 2 mM Tobramycin appears to have been too high for the cells to withstand. […] As both of these strains are not resistant to Tobramycin, cell lysis at prolonged incubation times was expected.
# [2] = test system: Pseudomonas aeruginosa PAO750 (hyper-susceptible strain, efflux pumps deleted); type: cell-based; details: for Percentage of Tobramycin in Supernatant, PAO750: 2 mM Tobramycin, 1X PBS, 0.4% glucose, 37° C., DPV on GCE at pH 3
# Procedure: as §1, §2
# [3] = Control drug solution without bacterial cells incubated at 37° C., DPV; details: for Percentage of Tobramycin in Supernatant, Control: 2 mM Tobramycin in 1X PBS, 0.4% glucose without bacterial cells
# Procedure: DPV measurements of 1 mM Cip were taken and after incubation, centrifugation was performed at 4000 rpm for 10 min and the supernatant was collected.
# Similarly uptake of Tobramycin (2 mM), was analyzed in Pseudomonas aeruginosa also using DPV. The control solutions were tested before and after incubation at 37° C. and with different incubation times at 37° C. (i.e. 15 minutes; 30 minutes and 60 minutes). […] Integration underneath the curves provides the charge. This charge is proportional to the number of molecules transferred during DPV recordings (see FIGS. 11-14).
# [4] = test system: A2780-s and A2780-cp ovarian cancer cells; assay: SECM electrochemical response of ovarian cancer cells to carboplatin (FcCH2OH regeneration); type: cell-based
# Procedure: Carboplatin-susceptible (A2780-s) and carboplatin-resistant (A2780-cp) ovarian cancer cells were grown in petri dishes at 37° C. until a confluence of approximately 60 to 70% was reached. Cells were exposed to a PBS solution containing 1 mM ferrocenemethanol (FcCH2OH) at 37° C. for 45 minutes. Following this incubation, the petri dish was inserted into a scanning electrochemical microscope (SECM), equipped with a camera, fluorescence unit and a heating stage. Target cells were identified using an approach curve and a horizontal line scan was carried out across the cells every 5 to 10 minutes. The solution in the petri dish was exchanged for a PBS solution containing 2 mM carboplatin and 1 mM ferrocenemethanol (FcCH2OH). Horizontal line scans were carried out every 5 to 10 minutes to record the electrochemical response by the cells.
# [5] = test system: carboplatin-susceptible and carboplatin-resistant ovarian cancer cell line; assay: Voltammetric carboplatin uptake study in ovarian cancer cells; type: cell-based; details: one carboplatin-susceptible and one carboplatin-resistant cell line
# Procedure: Further work was done by the inventors^45 to evaluate the electrochemical detection of chemotherapeutic uptake by ovarian cancer cells, whereby an electrochemical characterization of carboplatin was evaluated for detection limits and pH dependence. Furthermore, bioelectrochemical studies quantified carboplatin uptake by ovarian cancer cells.
# [6] = test system: Pseudomonas bacteria (PAO1 and PA262); details: not told
# Procedure: After 25 min of incubation, the bacteria suspension is centrifuged, cells are resuspended in PBS and drop-casted onto a 3-mm glassy carbon macroelectrode (see FIG. 1D). Other macroelectrode materials, such as gold, platinum, etc. could be employed in the same way. The electrode is then placed in a KCl solution and DPV is performed at a potential rage of zero to 1.0V. This potential range would be adjusted depending on the drug of interest.
# When the electrode is placed in the KCl solution, various time intervals were applied before driving the oxidation reaction at the electrode.
smiles,measurement,setting,value
NC[C@H]1O[C@H](O[C@H]2[C@H](O)[C@@H](O[C@H]3O[C@H](CO)[C@@H](O)[C@H](N)[C@H]3O)[C@H](N)C[C@@H]2N)[C@H](N)C[C@@H]1O [Tobramycin],"Percentage of Tobramycin in Supernatant, PAO1",[1]; 15 minutes,80%
same,"Percentage of Tobramycin in Supernatant, PAO1",[1]; 30 minutes,81%
same,"Percentage of Tobramycin in Supernatant, PAO1",[1]; 60 minutes,99%
same,"uptake observation at prolonged incubation, PAO1","[1]; 2 mM, 60 min",A similar effect is seen in PAO1
same,Tobramycin taken up from the solution by PAO1,"[1]; 2 mM, incubation times of 15 and 30 min",approximately 20%
same,time to establishment of equilibrium of intracellular and extracellular Tobramycin,"[1]; PAO1, 2 mM",< 15 min
same,"Percentage of Tobramycin in Supernatant, PAO750",[2]; 15 minutes,74%
same,"Percentage of Tobramycin in Supernatant, PAO750",[2]; 30 minutes,95%
same,"Percentage of Tobramycin in Supernatant, PAO750",[2]; 60 minutes,99%
same,Tobramycin removed by PAO750,"[2]; 2 mM, 15 min",about 26%
same,"uptake observation at prolonged incubation, PAO750","[2]; 2 mM, 30 min","the uptake is failing, probably due to cell lysis of PAO750"
same,stability of Tobramycin control solution (DPV currents before and after incubation),[3]; 2 mM,"do not vary, indicating stable 2 mM Tobramycin concentrations"
same,"Percentage of Tobramycin in Supernatant, Control",[3]; 15 minutes,99%
same,"Percentage of Tobramycin in Supernatant, Control",[3]; 30 minutes,99%
same,"Percentage of Tobramycin in Supernatant, Control",[3]; 60 minutes,95%
N.N.O=C([O-])C1(C(=O)[O-])CCC1.[Pt+2] [carboplatin],time for slope increase to relax back to its initial value,[4]; A2780-cp cells,5 to 10 min
same,change of slope (peak current vs scan velocity) after drug exposure,"[4]; A2780-cp cells, 2 mM carboplatin, 1 mM FcCH2OH",an increase in slope right after carboplatin exposure was observed
same,difference in SECM response between susceptible and resistant cells,[4]; A2780-s vs A2780-cp,A clear difference between carboplatin-susceptible and carboplatin-resistant cells
same,drug uptake detected by voltammetry,[5],demonstrated the detection of carboplatin uptake
O=C(O)c1cn(C2CC2)c2cc(N3CCNCC3)c(F)cc2c1=O [ciprofloxacin],DPV current of drop-casted bacteria after incubation with drug (export from the bacteria),[6],significant increase in current
same,dependence of export current peak on wait time,[6],a longer wait time results in a higher current peak
